The record followed here is paper PMC4995097, “Talin-KANK1 interaction controls the recruitment of cortical microtubule stabilizing complexes to focal adhesions” (eLife, 2016).

What all share (type): cell-based, human
The subject of test [1] is focal adhesions in HeLa cells. Briefly: FA area. Also noted: AV areaFA: unit not given here. The note with it: HeLa, TLN1-KD, mTLN1 rescue; mean of per-cell averages, Count 12. The protocol: (§1) HeLa Kyoto cell line was described previously ([Lansbergen et al., 2006]; [Mimori-Kiyosue et al., 2005]). HEK293T cells were purchased from ATCC; culture and transfection of DNA and siRNA into these cell lines was performed as previously described ([van der Vaart et al., 2013]). HaCaT cells were purchased at Cell Line Service (Eppelheim, Germany) and cultured according to manufacturer’s instructions. The cell lines were routinely checked for mycoplasma contamination using LT07-518 Mycoalert assay (Lonza, Switzerland).The identity of the cell lines was monitored by immunofluorescence-staining-based analysis with multiple markers. Blebbistatin was purchased from Enzo Life Sciences and used at 50 μM. […]
For presentation, images were adjusted for brightness and processed by Gaussian blur and Unsharp mask filter using ImageJ 1.47v (NIH). Fluorescence profiles are values measured by line scan analysis in ImageJ, normalized by background average fluorescence, expressed as a factor of the baseline value obtained for individual channel and plotted as a function of maximum length factor of the selection line (distance ratio). Protein clustering at the cell edge is the ratio of the total fluorescence in the first 5 μm from the cell edge to the next 5 μm measured by line scan analysis in ImageJ after thresholding for cell outline marking and out-of-cell region value assigned to zero. […]

The subject of test [2] is HeLa cells. Briefly: Cell area, attachment and spreading. Also noted: AV Cell Area: unit not given here. The protocol: (§2) HeLa Kyoto cell line was described previously ([Lansbergen et al., 2006]; [Mimori-Kiyosue et al., 2005]). HEK293T cells were purchased from ATCC; culture and transfection of DNA and siRNA into these cell lines was performed as previously described ([van der Vaart et al., 2013]). HaCaT cells were purchased at Cell Line Service (Eppelheim, Germany) and cultured according to manufacturer’s instructions. The cell lines were routinely checked for mycoplasma contamination using LT07-518 Mycoalert assay (Lonza, Switzerland).The identity of the cell lines was monitored by immunofluorescence-staining-based analysis with multiple markers. Blebbistatin was purchased from Enzo Life Sciences and used at 50 μM. Serum starvation in HeLa cells was done for 48 hr and focal adhesion assembly was stimulated by incubation with fetal calf serum-containing medium with or without blebbistatin for 2 hr. ROCK1 inhibitor Y-27632 was purchased at Sigma-Aldrich and used at 1 or 10 μM. Double stable HeLa cell line expressing GFP-KANK1 and TagRFP-paxillin was made by viral infection. We used a pLVIN-TagRFP-paxillin-based lentivirus and a pQC-GFP-KANK1-based retrovirus packaged in HEK293T cells using respectively Lenti-X HTX packaging and pCL-Ampho vectors. Antibiotic selection was applied to cells 48 hr after infection using 500 μg/ml G418 (Geneticin, Life Technologies) and 1 μg/ml puromycin (InvivoGen).
(§3) For presentation, images were adjusted for brightness and processed by Gaussian blur and Unsharp mask filter using ImageJ 1.47v (NIH). Fluorescence profiles are values measured by line scan analysis in ImageJ, normalized by background average fluorescence, expressed as a factor of the baseline value obtained for individual channel and plotted as a function of maximum length factor of the selection line (distance ratio). Protein clustering at the cell edge is the ratio of the total fluorescence in the first 5 μm from the cell edge to the next 5 μm measured by line scan analysis in ImageJ after thresholding for cell outline marking and out-of-cell region value assigned to zero. The results were plotted as percentage of control condition average value. FA counting and area measurement was performed using Analyze Particles under ImageJ on focal adhesion binary mask obtained after Gaussian blur/threshold-based cell outline marking and background subtraction (rolling ball radius, 10 pixels). KANK1/talin colocalization was analyzed using Pearson R value provided by Colocalization Analysis plugin under FiJi-ImageJ and a 3 μm diameter circular ROI centered on talin clusters detected by immunofluorescent staining.

Test [3] relates to KANK1 at the cell edge of HeLa cells. Briefly: Peripheral clustering of KANK1. The protocol:
as §2
Antibodies against HA and GFP tags, and liprin β1 used for Western blot analysis were previously described ([van der Vaart et al., 2013]). Rabbit antibodies against KANK1 (HPA005539) and KANK2 (HPA015643) were purchased at Sigma-Aldrich. Western blot analysis of KANK1 was performed using rabbit polyclonal KANK1 antibody (A301-882A) purchased at Bethyl Laboratories. Talin immunofluorescence staining was performed using mouse monoclonal 8d4 antibody (Sigma-Aldrich). Western blot analysis of talin 1 and 2 expression was performed using respectively the isotype specific mouse monoclonal 97H6 (Sigma-Aldrich) and 68E7 (Abcam) antibodies. Ku80 (7/Ku80) antibody was purchased from BD Biosciences. Immunofluorescence staining of KANK1, LL5β, liprin β1, KIF21A and CLASP2 in HeLa and HaCaT cells was performed using the antibodies and procedures previously described ([Lansbergen et al., 2006]; [van der Vaart et al., 2013]). F-actin was stained using Alexa Fluor 594-conjugated phalloidin (Life Technologies). Phospho-tyrosine mouse antibody (PT-66) was purchased from Sigma-Aldrich and rabbit FAK phospho-tyrosine 397 was purchased from Biosource.
Fixed samples and corresponding immunofluorescence images were acquired using widefield fluorescence illumination on a Nikon Eclipse 80i or Ni upright microscope equipped with a CoolSNAP HQ2 CCD camera (Photometrics) or a DS-Qi2 camera (Nikon) an Intensilight C-HGFI precentered fiber illuminator (Nikon), ET-DAPI, ET-EGFP and ET-mCherry filters (Chroma), Nikon NIS Br software, Plan Apo VC 100x NA 1.4 oil, Plan Apo Lambda 100X oil NA 1.45 and Plan Apo VC 60x NA 1.4 oil (Nikon) objectives. TIRFM-based live cell imaging was performed using the setup described before ([van der Vaart et al., 2013]) or a similar Nikon Ti microscope-based Ilas^2 system (Roper Scientific, Evry, FRANCE) equipped with dual laser illuminator for azimuthal spinning TIRF (or Hilo) illumination, 150 mW 488 nm laser and 100 mW 561 nm laser, 49,002 and 49,008 Chroma filter sets, EMCCD Evolve mono FW DELTA 512x512 camera (Roper Scientific) with the intermediate lens 2.5X (Nikon C mount adapter 2.5X), CCD camera CoolSNAP MYO M-USB-14-AC (Roper Scientific) and controlled with MetaMorph 7.8.8 software (Molecular Devices). Simultaneous imaging of […] was performed as described before ([van der Vaart et al., 2013]) or using the Optosplit III image splitter device (Andor) on the Ilas^2 system.
For presentation, images were adjusted for brightness and processed by Gaussian blur and Unsharp mask filter using ImageJ 1.47v (NIH). […]

Test [4] relates to microtubule plus ends in HeLa cells. Briefly: Ratio of microtubule growth rate in the cell center and at the cell edge. Particulars: depletion and rescue, EB3-mRFP. The procedure: nEB3-mRFP dynamics was recorded by 0.5 s interval time lapse TIRF imaging. Microtubule growth was measured using kymographs obtained from EB3-mRFP time lapse image series, plotted and presented as previously described ([van der Vaart et al., 2013]). Ratio of microtubule growth in cell center to periphery was obtained as values for individual cells. Microtubule growth trajectory angle to the cell edge was manually measured in ImageJ using tracks obtained by maximum intensity projection of EB3-mRFP image series.

The test system of test [5] is KIF21A at the cell edge of HeLa cells. Briefly: Peripheral clustering of KIF21A. Particulars: talin1/2-depleted HeLa rescue (Fig 4G); mean, n = 12, SEM 3.66709. The procedure:
as §1, with “μM. Serum starvation in HeLa cells was done for 48 hr and focal adhesion assembly was stimulated by incubation with fetal calf serum-containing medium with or without blebbistatin for 2 hr.” for “μM.”
Fixed samples and corresponding immunofluorescence images were acquired using widefield fluorescence illumination on a Nikon Eclipse 80i or Ni upright microscope equipped with a CoolSNAP HQ2 CCD camera (Photometrics) or a DS-Qi2 camera (Nikon) an Intensilight C-HGFI precentered fiber illuminator (Nikon), ET-DAPI, ET-EGFP and ET-mCherry filters (Chroma), Nikon NIS Br software, Plan Apo VC 100x NA 1.4 oil, Plan Apo Lambda 100X oil NA 1.45 and Plan Apo VC 60x NA 1.4 oil (Nikon) objectives. […]

The test system of test [6] is focal adhesions in HeLa cells. The experiment in a line: FA number. The procedure:
as §2, §3

As for “GFP-talin1-G1404L: GFP-tagged mouse talin1 with single point mutation G1404L”, the “AV areaFA” value in test [1] turned out to be 1.146. Also, in test [2] (HeLa, TLN1-KD, mTLN1 rescue, mean, Count 13), the “AV Cell Area” value stood at 1671.82. Further, in test [2] (compared to rescue with wild type GFP-talin1), the “cell area (in words)” value is listed as “slightly increased compared to cells rescued with the wild type GFP-talin1”. The “cell attachment and spreading (in words)” value in test [2] (talin1/2-depleted HeLa) was “could fully support cell attachment and spreading”. Besides, the “Peripheral clustering of KANK1, edge ratio, AV” value in test [3] (talin1/2-depleted HeLa rescued with GFP-talin1 (Fig 3F), mean, n = 12) is 0.9974. Moreover, in test [3] (talin1/2-depleted HeLa, Figure 3E,F), the “KANK1 distribution, talin rescue (in words)” value was “dispersed over the plasma membrane”. For the same substance, in test [4], the “microtubule growth, fold slower at cell margin/edge than in cell center” value stood at 1.5 fold. For the same substance, the “Peripheral clustering of KIF21A, percentage of control, AV, talin rescue” value in test [5] is listed as 41.905 percentage of control condition average value. Moreover, the “AV #FA” value in test [6] (HeLa, TLN1-KD, mTLN1 rescue, mean FA number per cell, Count 12) was 55.3333. Also, the “number and size of focal adhesions (in words)” value in test [6] (compared to rescue with wild type talin1) is listed as “not significantly different”.
